# Values quoted from earlier work as cited in US20100055181A1, “CONTROLLED RELEASE DOSAGE FORMS OF ZOLPIDEM” (LUPIN LIMITED, priority 2006, published 2010).
# Settings: hypnotic action, oral, conventional forms
smiles,measurement,value
Cc1ccc(-c2nc3ccc(C)cn3c2CC(=O)N(C)C)cc1 [zolpidem],duration of action,up to 6 hours
